One experiment relates to Her2. In words: Degradation of Her2 in BT-474 cells, immunoblot (Method 1). The following applies: overnight. In kind it is cell-based, Human. The method, then:
Human high-Her2 breast carcinoma BT474 (HTB-20), SK-BR-3 (HTB-30) and MCF-7 breast carcinoma (HTB-22) from American Type Culture Collection, VA, USA were grown in Dulbecco's modified Eagle's medium with 4 mM L-glutamine and antibiotics (100 IU/ml penicillin and 100 ug/ml streptomycine; GibcoBRL). To obtain exponential cell growth, cells were trypsinized, counted and seeded at a cell density of 0.5×10^6 cells/ml regularly, every 3 days. All experiments were performed on day 1 after cell passage. • B. Degradation of Her2 in Cells After Treatment with a Compound of the Invention • 1. Method 1
BT-474 cells were treated with 0.5 μM, 2 μM, or 5 μM of 17AAG (a positive control) or 0.5 μM, 2 μM, or 5 μM of Compound 108 or Compound 49 overnight in DMEM medium. After treatment, each cytoplasmic sample was prepared from 1×10^6 cells by incubation of cell lysis buffer (#9803, cell Signaling Technology) on ice for 10 minutes. The resulting supernatant used as the cytosol fractions were dissolved with sample buffer for SDS-PAGE and run on a SDS-PAGE gel, blotted onto a nitrocellulose membrane by using semi-dry transfer. Non-specific binding to nitrocellulose was blocked with 5% skim milk in TBS with 0.5% Tween at room temperature for 1 hour, then probed with anti-Her2/ErB2 mAb (rabbit IgG, #2242, Cell Signaling) and anti-Tubulin (T9026, Sigma) as housekeeping control protein. HRP-conjugated goat anti-rabbit IgG (H+L) and HRP-conjugated horse anti-mouse IgG (H+L) were used as secondary Ab (#7074, #7076, Cell Signaling) and LumiGLO reagent, 20× Peroxide (#7003, Cell Signaling) was used for visualization.

Experiment [1] has as its system glucocorticoid receptor. In words: Glucocorticoid receptor levels in rat PBMCs, immunoblot. In kind it is cell-based. The following applies: rat PBMCs, 0, 1, 5, 25, or 100 nM, 16 hours. The protocol: (§1) The whole blood samples from healthy human volunteer and male SD rat were collected and the PBMCs were isolated immediately as follows. 5 ml of whole blood was diluted with an equal volume of sterile 1× PBS. The diluted blood was overlayed carefully into a sterile centrifuge tube without disturbing the bottom layer that containing 5 ml of Ficoll-paque plus density gradient solution. The layered blood was centrifuged at 1500×g for 30 minutes at room temperature. The middle thin layer containing PBMCs was carefully removed, transferred to another sterile centrifuge tube, and washed twice with PBS to remove […]. Isolated rat and human PBMCs were cultured in 10% fetal bovine serum/DMEM.
(§2) The rat and human PBMCs were treated with DMSO (control), Compound 226, Compound 287, or 17-DMAG at concentrations of 0, 1, 5, 25, or 100 nM (in DMSO) for 16 hours. The cells were then collected and rinsed in ice-cold PBS and stored in liquid nitrogen until further analysis.
(§3) PBMC were prepared in Western lysis buffer (10 mmol/L HEPES, 42 mmol/L KCl, 5 mmol/L MgCl2, 0.1 mmol/L EDTA, 0.1 mmol/L EGTA, 1 mmol/L DTT, 1% Triton X-100, freshly supplemented with 1× protease inhibitor cocktail from Pierce, Rockford, Ill.). Lysate protein concentrations were quantified by bicinchoninic acid assay (Pierce) and normalized. Equal amounts of protein were loaded onto 10% NuPAGE Bis-Tris Gels (Invitrogen) and subsequently transferred onto polyvinylidene difluoride membranes. The membranes were blocked in 5% milk in TBST. Primary antibody of glucocorticod receptor from Santa Cruz Biotechnology, Inc. was added and incubated at room temperature for 1 hour with shaking. The blots were washed extensively in TBST before secondary antibodies were added for overnight incubation at 4° C. with gentle shaking. The blots were again washed extensively and developed with SuperSignal West Femto substrate (Pierce). The immunoblot analysis was performed to measure the level of total GRs by Quantity One software from Bio-Rad.
In general terms: A western blot detects proteins with antibodies after separation by electrophoresis.

Experiment [2] concerns glucocorticoid receptor. The experiment in a line: Glucocorticoid receptor levels in human PBMCs, immunoblot (Example 114). The following applies: human PBMCs, 0, 1, 5, 25, or 100 nM, 16 hours. Type of experiment: cell-based. The method, then: as §1, §2, §3
Experiment [3] concerns glucocorticoid receptor. In words: Glucocorticoid receptor levels in human PBMCs, renal cells and cancer cell lines, immunoblot (Example 115). Type of experiment: cell-based. The protocol: Normal human renal proximal tubule epithelial cells and tumor cell lines of MV-4-11, Kasumi-1, and Hela were obtained from Cambrex Bioproducts and American Type Culture Collection, respectively. Cells were cultured with 10% fetal bovine serum/DMEM.
The whole blood samples from healthy human volunteer were collected and the PBMCs were isolated immediately as described in Example 116. Isolated human PBMCs were cultured in 10% fetal bovine serum/DMEM.
Human PBMCs, kasumi-1, My-4-11, Hela, and human renal proximal tubule epithelial cells were treated with DMSO (control), Compound 226, Compound 287, 17-DMAG at concentrations of 0, 5, 25, or 100 nM (in DMSO) for 16 hours. The cells were then collected and rinsed in ice-cold PBS and stored in liquid nitrogen until further analysis.
as §3, with “PBMC, renal and tumor cell pellets” for “PBMC”, “0.1. mmol/LEGTA,” for “0.1 mmol/L EGTA,”, “glucocorticoid” for “glucocorticod”, “(Pierce).” for “(Pierce). The immunoblot analysis was performed to measure the level of total GRs by Quantity One software from Bio-Rad.”

In another experiment the target is T1, glucocorticoid receptors (Homo sapiens, UniProt P04150).
T1 construct: endogenous in cells; host or cells: HeLa S3
T1 sequence (P04150 1-777): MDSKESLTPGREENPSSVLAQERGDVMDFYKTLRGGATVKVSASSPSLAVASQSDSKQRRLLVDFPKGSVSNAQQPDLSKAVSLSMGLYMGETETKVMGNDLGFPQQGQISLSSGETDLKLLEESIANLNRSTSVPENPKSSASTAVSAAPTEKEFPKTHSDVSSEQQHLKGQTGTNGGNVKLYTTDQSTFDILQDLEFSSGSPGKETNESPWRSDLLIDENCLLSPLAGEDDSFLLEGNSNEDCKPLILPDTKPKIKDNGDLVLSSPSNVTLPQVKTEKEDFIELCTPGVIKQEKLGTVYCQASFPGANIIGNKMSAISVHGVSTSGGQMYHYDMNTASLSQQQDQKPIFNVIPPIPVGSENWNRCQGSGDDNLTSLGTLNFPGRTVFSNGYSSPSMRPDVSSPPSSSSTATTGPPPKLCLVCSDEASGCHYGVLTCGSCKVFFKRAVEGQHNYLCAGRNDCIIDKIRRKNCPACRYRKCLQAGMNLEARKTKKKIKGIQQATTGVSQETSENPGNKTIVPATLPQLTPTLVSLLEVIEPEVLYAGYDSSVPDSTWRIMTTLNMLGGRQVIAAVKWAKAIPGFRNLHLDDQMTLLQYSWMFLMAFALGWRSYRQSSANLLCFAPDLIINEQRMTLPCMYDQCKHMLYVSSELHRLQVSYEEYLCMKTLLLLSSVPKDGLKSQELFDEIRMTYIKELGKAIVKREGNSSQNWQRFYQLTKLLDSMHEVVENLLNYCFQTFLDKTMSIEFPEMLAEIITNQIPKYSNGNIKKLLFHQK
The experiment in a line: Competitive binding assay with tritium labeled dexamethason in Hela S3 cells (legend of FIG. 3).

In experiment [4] the test system is glucocorticoid receptor. In words: Glucocorticoid receptor levels in PBMCs of rats after four days of intravenous dosing, immunoblot. Type of experiment: in vivo, Sprague-Dawley (SD) rats. The following applies: daily intravenously for four days, 17-DMAG 6 mg/kg, Paclitaxel 5 mg/kg, Compound 264 80 mg/kg, Compound 226 50 mg/kg. The protocol: The test compounds were administered daily intravenously via tail vein for four days. […] All rats were sacrificed at the study day 5. About 1-2 mL of blood samples were collected per animal. The blood samples were then pulled together as a group for PBMC isolation.

Another experiment deals with Hsp90 protein. The experiment in a line: Malachite Green Assay of ATPase activity of Hsp90 protein. In kind it is biochemical. The protocol:
Hsp90 protein was obtained from Stressgen (Cat #SPP-770). Assay buffer: 100 mM Tris-HCl, Ph 7.4, 20 mM KCl, 6 mM MgCl2. […] Malachite green reagent was added to the reaction. […] The plate was read by an ELISA reader with an absorbance at 620 nm.

[5] abbreviates: Kasumi-1 AML cancer cells, 0, 5, 25, or 100 nM, 16 hrs.
[6] abbreviates: MV-4-11 AML cancer cells, 0, 5, 25, or 100 nM, 16 hrs.
Setting [7] is: cancer cells as well as normal PBMCs and renal cells.
The mark [8] stands for this setting: human PBMCs, 0, 5, 25, or 100 nM, 16 hrs.
Where [9] appears, read: human renal cells, 0, 5, 25, or 100 nM, 16 hrs.

The structures appear in SMILES notation. “Also recorded” adds a separate entry of the source.

In the case of `CCc1cc(-c2nnc(S)n2-c2cccc3ccccc23)c(O)cc1O` [Compound 49, 3-(2,4-Dihydroxy-5-ethyl-phenyl)-4-(naphthalen-1-yl)-5-mercapto-triazole], the “degradation of Her2” value is “partial degradated” in the experiment with Her2 (0.5 μM), “complete degradation” in the experiment on Her2 (2 μM) and “complete degradation” in the experiment with Her2 (5 μM).
With `CC(C)c1cc(-c2nnc(O)n2-c2ccc(N(C)CCN(C)C)cc2)c(O)cc1O` [Compound 287], the “expression of glucocorticoid receptors” value in the experiment with glucocorticoid receptor [1] was “dose dependent decrease; also recorded: decreased the expression of glucocorticoid receptor in a dose dependent manner”; in the experiment on glucocorticoid receptor [2] it was “dose dependent decrease; also recorded: decreased the expression of glucocorticoid receptor in a dose dependent manner”; in the experiment on glucocorticoid receptor [3] (setting [5]), “dose dependent decrease”; with glucocorticoid receptor [3] (setting [6]), “dose dependent decrease”; in the experiment on glucocorticoid receptor [3] (setting [7]) it was “suppress the expression of glucocorticoid receptors”; with glucocorticoid receptor [3] (setting [8]) it was “dose dependent decrease”. The “expression of glucocorticoid receptors” value with glucocorticoid receptor [3] (setting [9]) is listed as “dose dependent decrease”. Besides, in the experiment on glucocorticoid receptor [3], the “suppression of glucocorticoid receptors, cancer cells compared with normal cells” value is listed as “more pronounced in cancer cell than in normal cells”.
On to `CC(=O)O[C@H]1C(=O)[C@@]2(C)[C@H]([C@H](OC(=O)c3ccccc3)[C@]3(O)C[C@H](OC(=O)[C@H](O)[C@@H](NC(=O)c4ccccc4)c4ccccc4)C(C)=C1C3(C)C)[C@]1(OC(C)=O)CO[C@@H]1C[C@@H]2O` [Paclitaxel, reference compound], for which the “displacement of tritium labeled dexamethason” value at glucocorticoid receptors is “did not displace the tritium labeled dexamethason”. Moreover, the “expression of glucocorticoid receptor (GR) in isolated PBMC compared with vehicle” value in the experiment on glucocorticoid receptor [4] is “decreased”.
With `Oc1ccc(-c2nnc(S)n2-c2cccc3ccccc23)c(O)c1` [Compound 108, 3-(2,4-Dihydroxy-phenyl)-4-(naphthalen-1-yl)-5-mercapto-triazole], the “ATPase activity of Hsp90” value in the experiment with Hsp90 protein (4 μM) is “significant inhibition”; in the experiment on Hsp90 protein (40 μM), “even greater inhibition of ATPase activity of Hsp90 than geldanamycin”. The “degradation of Her2” value in the experiment with Her2 (0.5 μM) is on record as “partially degradated”; with Her2 (2 μM), “partially degradated”; in the experiment with Her2 (5 μM), “almost completely degraded”.
As for `CO[C@H]1/C=C\C=C(/C)C(=O)NC2=CC(=O)C(NCCN(C)C)=C(C[C@@H](C)C[C@H](OC)[C@H](O)[C@@H](C)/C=C(\C)[C@@H]1OC(N)=O)C2=O` [Compound 17-DMAG, 17-DMAG, reference compound], the “expression of glucocorticoid receptors” value is “dose dependent decrease; also recorded: decreased the expression of glucocorticoid receptor in a dose dependent manner” in the experiment on glucocorticoid receptor [1]; “dose dependent decrease; also recorded: decreased the expression of glucocorticoid receptor in a dose dependent manner” with glucocorticoid receptor [2]; “dose dependent decrease” in the experiment on glucocorticoid receptor [3] (HeLa cells, 0, 5, 25, or 100 nM, 16 hrs); “dose dependent decrease” in the experiment on glucocorticoid receptor [3] (setting [5]); “dose dependent decrease” in the experiment on glucocorticoid receptor [3] (setting [6]); “suppress the expression of glucocorticoid receptors” with glucocorticoid receptor [3] (setting [7]). Further, the “expression of glucocorticoid receptors” value in the experiment with glucocorticoid receptor [3] (setting [8]) and in the experiment on glucocorticoid receptor [3] (setting [9]) was “dose dependent decrease” each time. Further, the “expression of glucocorticoid receptor (GR) in isolated PBMC compared with vehicle” value with glucocorticoid receptor [4] is on record as “decreased”. For the same compound, the “suppression of glucocorticoid receptors, cancer cells compared with normal cells” value in the experiment on glucocorticoid receptor [3] is listed as “more pronounced in cancer cell than in normal cells”.
Take `C[C@@H]1C[C@H]2O[C@@H]2/C=C\C=C\C(=O)Cc2c(Cl)c(O)cc(O)c2C(=O)O1` [radicicol]: the “displacement of tritium labeled dexamethason” value on glucocorticoid receptors is given as “did not displace the tritium labeled dexamethason”.
